Measured values: patent publication US20260262643A1, “HERBICIDAL BENZOXAZINES” (FMC CORPORATION, priority 2022, published 2026)

Experiments:
wheat [1] = assay: Test C preemergence; type: in vivo, Triticum aestivum; details: preemergence, 0 to 100 scale (0 no effect, 100 complete control)
In short: (§1)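 Greenhouse herbicide screen, 10-day duration. Test chemicals in solvent/surfactant blend were sprayed onto soil at sowing (pre) or onto 2–10 cm seedlings at one to two leaves (post); injury scored visually against controls, 0 no effect to 100 complete control.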

barnyardgrass [2] = assay: Test D flooded paddy test; type: in vivo, Echinochloa crus-galli; details: 250 g ai/ha, applied to paddy water, visual rating after 13 to 14 days, scale 0 to 100 (0 no effect, 100 complete control)
In short: (§2)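 Compounds go straight into paddy water over 2-leaf plants in pots flooded to 3 cm. Greenhouse holding lasts 13 to 14 days. Injury is scored by eye against controls from 0 (none) to 100 (complete control).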

green foxtail [3] = assay: Test C preemergence; type: in vivo, Setaria viridis; details: preemergence, 0 to 100 scale (0 no effect, 100 complete control)
In short: as §1

pigweed, palmer [4] = assay: Test C preemergence; type: in vivo, Amaranthus palmeri; details: preemergence, 0 to 100 scale (0 no effect, 100 complete control)
In short: as §1

horseweed = assay: Test C postemergence; type: in vivo, Erigeron canadensis; details: 10 days
In short: as §1

sedge, umbrella = assay: Test D flooded paddy test; type: in vivo, Cyperus difformis; details: 250 g ai/ha, applied to paddy water, visual rating after 13 to 14 days, scale 0 to 100 (0 no effect, 100 complete control)
In short: as §2

barnyardgrass [5] = assay: Test C preemergence; type: in vivo, Echinochloa crusgalli; details: 0 to 100 scale (0 no effect, 100 complete control); for Barnyardgrass plant response rating: preemergence
In short: as §1

kochia [6] = assay: Test C postemergence; type: in vivo, Bassia scoparia; details: postemergence, 10 days
In short: as §1

barnyardgrass [7] = assay: Test C postemergence; type: in vivo, Echinochloa crusgalli; details: 10 days
In short: as §1

corn [8] = assay: Test C preemergence; type: in vivo, Zea mays; details: preemergence, 0 to 100 scale (0 no effect, 100 complete control)
In short: as §1

ducksalad = assay: Test D flooded paddy test; type: in vivo, Heteranthera limosa; details: 250 g ai/ha, applied to paddy water, visual rating after 13 to 14 days, scale 0 to 100 (0 no effect, 100 complete control)
In short: as §2

oat, wild [9] = assay: Test C preemergence; type: in vivo, Avena fatua; details: preemergence, 0 to 100 scale (0 no effect, 100 complete control)
In short: as §1

ragweed [10] = assay: Test C postemergence; type: in vivo, Ambrosia artemisiifolia; details: postemergence, 10 days
In short: as §1

kochia [11] = assay: Test C preemergence; type: in vivo, Bassia scoparia; details: preemergence, 0 to 100 scale (0 no effect, 100 complete control)
In short: as §1

ryegrass, Italian [12] = assay: Test C postemergence; type: in vivo, Lolium multiflorum; details: postemergence, 10 days
In short: as §1

wheat [13] = assay: Test C postemergence; type: in vivo, Triticum aestivum; details: postemergence, 10 days
In short: as §1

ryegrass, Italian [14] = assay: Test C preemergence; type: in vivo, Lolium multiflorum; details: preemergence, 0 to 100 scale (0 no effect, 100 complete control)
In short: as §1

soybean [15] = assay: Test C preemergence; type: in vivo, Glycine max; details: preemergence, 0 to 100 scale (0 no effect, 100 complete control)
In short: as §1

corn [16] = assay: Test C postemergence; type: in vivo, Zea mays; details: 10 days
In short: as §1

blackgrass [17] = assay: Test C postemergence; type: in vivo, Alopecurus myosuroides; details: 10 days
In short: as §1

green foxtail [18] = assay: Test C postemergence; type: in vivo, Setaria viridis; details: 10 days
In short: as §1

rice = assay: Test D flooded paddy test; type: in vivo, Oryza sativa; details: 250 g ai/ha, applied to paddy water, visual rating after 13 to 14 days, scale 0 to 100 (0 no effect, 100 complete control)
In short: as §2

galium = assay: Test C postemergence; type: in vivo, Galium aparine; details: 10 days
In short: as §1

soybean [19] = assay: Test C postemergence; type: in vivo, Glycine max; details: postemergence, 10 days
In short: as §1

ragweed [20] = assay: Test C preemergence; type: in vivo, Ambrosia artemisiifolia; details: preemergence, 0 to 100 scale (0 no effect, 100 complete control)
In short: as §1

pigweed, palmer [21] = assay: Test C postemergence; type: in vivo, Amaranthus palmeri; details: postemergence, 10 days
In short: as §1

blackgrass [22] = assay: Test C preemergence; type: in vivo, Alopecurus myosuroides; details: 0 to 100 scale (0 no effect, 100 complete control); for Blackgrass plant response rating: preemergence
In short: as §1

oat, wild [23] = assay: Test C postemergence; type: in vivo, Avena fatua; details: postemergence, 10 days
In short: as §1

[24] = 125 g ai/ha, postemergence, 0 to 100 scale, 0 no effect, 100 complete control
[25] = 500 g ai/ha, postemergence, 0 to 100 scale (0 no effect, 100 complete control)
[26] = 125 g ai/ha, 0 to 100 scale, 0 no effect, 100 complete control
[27] = 500 g ai/ha, 0 to 100 scale (0 no effect, 100 complete control)
[28] = Postemergence, 500 g ai/ha, visual 0 to 100 scale (0 no effect, 100 complete control)
[29] = Preemergence, 500 g ai/ha, visual rating after 10 days

## Cc1ccc(-n2cnc(C(C)C)n2)cc1C(=O)N1CC(C(F)(F)F)Oc2c(Cl)cccc21 (single isomer, unassigned) [Compound 292]
Wheat [1]; 500 g ai/ha
  Wheat plant response rating: 50
Wheat [1]; Test C, 125 g ai/ha
  Wheat plant response rating: 20
Barnyardgrass [2]
  Plant response rating, Barnyardgrass (Flood): 0
Green foxtail [3]; 500 g ai/ha
  Foxtail, Green plant response rating: 100
Green foxtail [3]; Test C, 125 g ai/ha
  Foxtail, Green plant response rating: 90
pigweed, palmer [4]; 500 g ai/ha
  Pigweed, Palmer plant response rating: 100
pigweed, palmer [4]; Test C, 125 g ai/ha
  Pigweed, Palmer plant response rating: 100
horseweed; [24]
  Plant response rating, Horseweed: 20
horseweed; [25]
  Plant response rating, Horseweed: 60
sedge, umbrella
  Plant response rating, Sedge, Umbrella (Flood): 0
Barnyardgrass [5]; 500 g ai/ha
  Barnyardgrass plant response rating: 90
Barnyardgrass [5]; Test C, 125 g ai/ha
  Barnyardgrass plant response rating: 20
Kochia [6]; [26]
  Plant response rating, Kochia: 70
Kochia [6]; [27]
  Plant response rating, Kochia: 90
Barnyardgrass [7]; [24]
  Plant response rating, Barnyardgrass: 10
Barnyardgrass [7]; [25]
  Plant response rating, Barnyardgrass: 20
Corn [8]; 500 g ai/ha
  Corn plant response rating: 10
Corn [8]; Test C, 125 g ai/ha
  Corn plant response rating: 10
ducksalad
  Plant response rating, Ducksalad (Flood): 0
oat, wild [9]; 500 g ai/ha
  Oat, Wild plant response rating: 80
oat, wild [9]; Test C, 125 g ai/ha
  Oat, Wild plant response rating: 40
Ragweed [10]; [26]
  Plant response rating, Ragweed: 30
Ragweed [10]; [27]
  Plant response rating, Ragweed: 20
Kochia [11]; 500 g ai/ha
  Kochia plant response rating: 60
Kochia [11]; Test C, 125 g ai/ha
  Kochia plant response rating: 30
ryegrass, Italian [12]; [26]
  Plant response rating, Ryegrass, Italian: 0
ryegrass, Italian [12]; [27]
  Plant response rating, Ryegrass, Italian: 60
Wheat [13]; [26]
  Plant response rating, Wheat: 20
Wheat [13]; [27]
  Plant response rating, Wheat: 30
ryegrass, Italian [14]; 500 g ai/ha
  Ryegrass, Italian plant response rating: 100
ryegrass, Italian [14]; Test C, 125 g ai/ha
  Ryegrass, Italian plant response rating: 90
Soybean [15]; 500 g ai/ha
  Soybean plant response rating: 90
Soybean [15]; Test C, 125 g ai/ha
  Soybean plant response rating: 40
Corn [16]; [24]
  Plant response rating, Corn: 10
Corn [16]; [25]
  Plant response rating, Corn: 20
Blackgrass [17]; [24]
  Plant response rating, Blackgrass: 0
Blackgrass [17]; [25]
  Plant response rating, Blackgrass: 20
Green foxtail [18]; [24]
  Plant response rating, Foxtail, Green: 30
Green foxtail [18]; [25]
  Plant response rating, Foxtail, Green: 40
rice
  Plant response rating, Rice (Flood): 0
galium; [24]
  Plant response rating, Galium: 70
galium; [25]
  Plant response rating, Galium: 80
Soybean [19]; [26]
  Plant response rating, Soybean: 100
Soybean [19]; [27]
  Plant response rating, Soybean: 100
Ragweed [20]; 500 g ai/ha
  Ragweed plant response rating: 20
Ragweed [20]; Test C, 125 g ai/ha
  Ragweed plant response rating: 20
pigweed, palmer [21]; [26]
  Plant response rating, Pigweed, Palmer: 80
pigweed, palmer [21]; [27]
  Plant response rating, Pigweed, Palmer: 80
Blackgrass [22]; 500 g ai/ha
  Blackgrass plant response rating: 90
Blackgrass [22]; Test C, 125 g ai/ha
  Blackgrass plant response rating: 30
oat, wild [23]; [26]
  Plant response rating, Oat, Wild: 0
oat, wild [23]; [27]
  Plant response rating, Oat, Wild: 50

## COc1ccc(-n2cncn2)cc1C(=O)N1C[C@H](C)Oc2c(F)cccc21 [Compound 270]
Wheat [1]; 500 g ai/ha
  Wheat plant response rating: 90
Wheat [1]; Test C, 125 g ai/ha
  Wheat plant response rating: 40
Barnyardgrass [2]
  Plant response rating, Barnyardgrass (Flood): 15
Green foxtail [3]; 500 g ai/ha
  Foxtail, Green plant response rating: 100
Green foxtail [3]; Test C, 125 g ai/ha
  Foxtail, Green plant response rating: 100
pigweed, palmer [4]; 500 g ai/ha
  Pigweed, Palmer plant response rating: 100
pigweed, palmer [4]; Test C, 125 g ai/ha
  Pigweed, Palmer plant response rating: 90
horseweed; [24]
  Plant response rating, Horseweed: 20
horseweed; [28]
  Plant response rating, Horseweed: 60
sedge, umbrella
  Plant response rating, Sedge, Umbrella (Flood): 95
Barnyardgrass [5]; [29]
  Plant response rating, Barnyardgrass: 100
Barnyardgrass [5]; Test C, 125 g ai/ha
  Barnyardgrass plant response rating: 70
Kochia [6]; [26]
  Plant response rating, Kochia: 30
Barnyardgrass [7]; [24]
  Plant response rating, Barnyardgrass: 90
Barnyardgrass [7]; [28]
  Plant response rating, Barnyardgrass: 100
Corn [8]; 500 g ai/ha
  Corn plant response rating: 40
Corn [8]; Test C, 125 g ai/ha
  Corn plant response rating: 0
ducksalad
  Plant response rating, Ducksalad (Flood): 100
oat, wild [9]; 500 g ai/ha
  Oat, Wild plant response rating: 90
oat, wild [9]; Test C, 125 g ai/ha
  Oat, Wild plant response rating: 40
Ragweed [10]; [26]
  Plant response rating, Ragweed: 30
Kochia [11]; 500 g ai/ha
  Kochia plant response rating: 90
Kochia [11]; Test C, 125 g ai/ha
  Kochia plant response rating: 60
ryegrass, Italian [12]; [26]
  Plant response rating, Ryegrass, Italian: 80
Wheat [13]; [26]
  Plant response rating, Wheat: 80
ryegrass, Italian [14]; 500 g ai/ha
  Ryegrass, Italian plant response rating: 100
ryegrass, Italian [14]; Test C, 125 g ai/ha
  Ryegrass, Italian plant response rating: 90
Soybean [15]; 500 g ai/ha
  Soybean plant response rating: 100
Soybean [15]; Test C, 125 g ai/ha
  Soybean plant response rating: 90
Corn [16]; [24]
  Plant response rating, Corn: 40
Corn [16]; [28]
  Plant response rating, Corn: 90
Blackgrass [17]; [24]
  Plant response rating, Blackgrass: 80
Blackgrass [17]; [28]
  Plant response rating, Blackgrass: 90
Green foxtail [18]; [24]
  Plant response rating, Foxtail, Green: 80
Green foxtail [18]; [28]
  Plant response rating, Foxtail, Green: 90
rice
  Plant response rating, Rice (Flood): 10
galium; [24]
  Plant response rating, Galium: 100
galium; [28]
  Plant response rating, Galium: 100
Soybean [19]; [26]
  Plant response rating, Soybean: 100
Ragweed [20]; 500 g ai/ha
  Ragweed plant response rating: 60
Ragweed [20]; Test C, 125 g ai/ha
  Ragweed plant response rating: 10
pigweed, palmer [21]; [26]
  Plant response rating, Pigweed, Palmer: 40
Blackgrass [22]; [29]
  Plant response rating, Blackgrass: 90
Blackgrass [22]; Test C, 125 g ai/ha
  Blackgrass plant response rating: 80
oat, wild [23]; [26]
  Plant response rating, Oat, Wild: 90
